Reference: patent publication US20140065226A1, “THERMO-RESPONSIVE HYDROGEL COMPOSITIONS” (priority 2011, published 2014)
Several values for one entry are separate records, joined by “and”; a condition that tells them apart may be missing. Identical values can stand only once. Counter-ions that a name gives are not always drawn. Like-named read-outs stand apart in the source and are kept apart here.

Key:
[1] = for release from pure thermo-responsive hydrogels: previous tests
Protocol: Drug release was carried out in PBS at 37° C. […] Drug release samples were taken at predetermined time intervals and tested for anti-proliferative activity with fibroblast MTS assay as described previously. Briefly, 3T3 fibroblast cells were seeded in 96-well plates as 5000 cells/well. After cells were grown to semiconfluence, growth was arrested by washing plates with PBS and then adding low serum medium with DMEM, 0.5% (v/v) FBS and 1% (v/v) penicillin/streptomycin mixture. Growth arrest was maintained for 24 hours. The cell cycle synchronized cells were then re-stimulated to enter G1 phase by changing back to growth medium. […] PBS was added to growth medium as control group.
To quantify the size distribution of nanospheres, the suspension was sampled and serially filtered through 0.45 μm, 0.22 μm, and 0.1 μm filters. The drug concentration after each filtration was quantified and calculated within each nanosphere size distribution. Nanospheres with size >100 nm in diameter were harvested by ultrafiltration and centrifugation. The harvested nanospheres were washed twice with DI water to remove excess PVA. The resultant nanosphere suspension was immersed in fresh PBS at 37° C. to initiate release. […] The release samples were taken continuously for 1 day. All samples were quantified for 3H concentration using a scintillation counter. Each experiment was conducted in triplicate.
The samples were taken continuously for the first 24 hours. The drug concentration was measured spectrophotometrically at 240 nm.

[2] = oil: methylene chloride + methanol

With `C[C@@H]1C[C@H]2[C@@H]3CCC4=CC(=O)C=C[C@]4(C)[C@@]3(F)[C@@H](O)C[C@]2(C)[C@@]1(O)C(=O)COP(=O)(O)O` [Dexamethasone sodium phosphate, Dexamethasone 21-phosphate disodium salt] the “release from free nanospheres” value ([1]; PBS, 37° C.) was “sustained release over 24 hours”, the “release from nanospheres loaded hydrogels” value ([1]; PBS, 37° C.) was “sustained release over 24 hours” and the “release from pure thermo-responsive hydrogels” value ([1]; after the first two hours) was “less than 10%”. The “drug release from PLGA nanospheres” value ([1]; within 24 hours, 37° C., PBS, disodium salt) was > 90% and ~90%, the “release from pure thermo-responsive hydrogels” value ([1]; within the first two hours) was roughly 90% and the “P (oil/water)” value ([2]; water: 0.2% PVA) was 0.06. For the same molecule, the “P (oil/water)” value ([2]; water: 2% PVA) was 0.15, the “P (oil/water)” value ([2]; water: 2% PVA + 0.25N (NH4)2SO4) was 0.86 and the “P (oil/water)” value ([2]; water: 2% PVA + 0.5N NaCl) was 0.26.

With `[3H]C1=C([3H])[C@@]2(C)C(=C([3H])C1=O)CC[C@H]1[C@@H]3C[C@@H](C)[C@](O)(C(=O)CO)[C@@]3(C)C[C@H](O)[C@@]12F` [[1,2,4-^3H]dexamethasone, [1,2,4-^3H]dexamethasone] the “P (oil/water)” value ([2]; water: 0.2% PVA) was 2.93.
